≈ marks a conversion by molar mass, not a printed value.
Tested on: HT-1080 cells
Assay: Lethality of commercially available CIL41/70 structural analogs
Assay type: cell-based
Settings: Homo sapiens, tested once in technical triplicates
Procedure: 1,000 cells per 36 μl were seeded in each well in 384-well plates. Lethal compounds were dissolved, and a twofold, 12-point dilution series was prepared in DMSO. Compound solutions were further diluted with media at 1:25, and 4 μl per well of the diluted solutions was added to cell cultures immediately after cells were seeded. […] When other cell-death-modulating compounds (100 nM sodium selenite, 1 μM cerivastatin, 100 μg/mL mevalonic acid) were used in cotreatments, they were supplemented to cell culture for 24 h before lethal compounds were added to cell culture, after which cells were further incubated for 24 h at 37° C. under 5% CO2. On the day of the viability measurement, we added 10 μl per well of 50% Alamar Blue diluted in media (Life Technologies) and further incubated the cells at 37° C. for 6 h. Fluorescence intensity (excitation/emission: 530/590) was measured with a Victor 3 plate reader (PerkinElmer), and the normalized viability was calculated as VL=(IL−I0)/(IV−I0), where VL, I0, IV, and IL are the normalized viability and the raw fluorescence intensities from the wells containing media, cells treated with a vehicle (negative control), and cells with the lethal compound (L), respectively. When the effect of a chemical modulator (M) on L was calculated, we instead used the equation VL|M=(IM,L−I0)/(IM,V−I0), where VL|M, IM,L and IM,V are the normalized viability, and fluorescence intensity from cells treated with […], respectively. The viability was typically measured in biological triplicate unless otherwise specified. A representative dose-response curve, the mean and standard error of normalized viability from one replicate were plotted. HT-1080 viability after modulator treatments corresponding to FIG. 3C and FIGS. 5E-5F is available in FIGS. 19A-19C.
Their lethality was tested once in HT-1080 cells in technical triplicates.

Row | Structure (SMILES) | EC50 [mg/L]
1 | Cc1ccc(OCC(=O)O/N=C(\N)Cc2ccc([N+](=O)[O-])cc2)c(C)c1 [CB16] | > 20
2 | N/C(Cc1ccc(Cl)cc1)=N\OC(=O)Cc1ccc([N+](=O)[O-])cc1 [CB17] | > 20
3 | N[C@H](Cc1ccc(Cl)cc1)NOC(=O)/C=C/c1ccccc1 [CB18] | 10.2 (≈ 32.2 µM)

From patent US10947188B2, “Small molecule ferroptosis inducers” (THE TRUSTEES OF COLUMBIA UNIVERSITY IN THE CITY OF NEW YORK, priority 2016, dated 2021)
